# From patent US7943618B2, “Btk protein kinase inhibitors” (Roche Palo Alto LLC, priority 2007, dated 2011)
# pIC50: −log10 of the molar value.
# Assays:
# [1] = biological target: T1, Btk enzyme (His-tagged, full-length) (Homo sapiens, UniProt Q06187); test: Bruton's Tyrosine Kinase (Btk) Inhibition Assay (33P filtration capture); type: biochemical; details: Bruton's tyrosine kinase Assay (Example 34), 100 μM ATP
# T1 construct: 5-10 nM Btk enzyme (His-tagged, full-length); His
# Description: Bruton's Tyrosine Kinase (Btk) Inhibition Assay
# The assay is a capture of radioactive ^33P phosphorylated product through filtration. The interactions of Btk, biotinylated SH2 peptide substrate (Src homology), and ATP lead to phosphorylation of the peptide substrate. Biotinylated product is bound streptavidin sepharose beads. All bound, radiolabeled products are detected by scintillation counter.
# Plates assayed are 96-well polypropylene (Greiner) and 96-well 1.2 μm hydrophilic PVDF filter plates (Millipore).
# IC50 determinations are calculated from 10 data points per compound utilizing data produced from a standard 96-well plate assay template. One control compound and seven unknown inhibitors were tested on each plate and each plate was run twice. […] The control compound was staurosporine. Background was counted in the absence of peptide substrate. Total activity was determined in the presence of peptide substrate. The following protocol was used to determine Btk inhibition.
# 1) Sample preparation: The test compounds were diluted at half-log increments in assay buffer (imidazole, glycerol-2-phosphate, EGTA, MnCl2, MgCl2, BSA).
# 2) Bead preparation • a.) rinse beads by centrifuging at 500 g • b.) reconstitute the beads with PBS and EDTA to produce a 20% bead slurry
# 3) Pre-incubate reaction mix without substrate (assay buffer, DTT, ATP, ^33P ATP) and mix with substrate (assay buffer, DTT, ATP, ^33P ATP, peptide substrate) 30° C. for 15 min.
# 4) To start assay, pre-incubate 10 μL Btk in enzyme buffer (imidazole, glycerol-2-phosphate, BSA) and 10 μL of test compounds for 10 min at RT.
# 5) Add 30 μL reaction mixture without or with substrate to Btk and compounds.
# 6) Incubate 50 μL total assay mix for 30 min at 30° C.
# 7) Transfer 40 μL of assay to 150 μL bead slurry in filter plate to stop reaction.
# 8) Wash filter plate after 30 min, with following steps • a. 3×250 μL NaCl • b. 3×250 μL NaCl containing 1% phosphoric acid • c. 1×250 μL H2O
# 9) Dry plate for 1 h at 65° C. or overnight at RT
# 10) Add 50 μL microscint-20 and count ^33P cpm on scintillation counter.
# Calculate percent activity from raw data in cpm percent activity=(sample−bkg)/(total activity−bkg)×100
# Calculate IC50 from percent activity, using one-site dose response sigmoidal model y=A+((B−A)/(1+((x/C)^D))))
# T1 sequence (Q06187 whole entry): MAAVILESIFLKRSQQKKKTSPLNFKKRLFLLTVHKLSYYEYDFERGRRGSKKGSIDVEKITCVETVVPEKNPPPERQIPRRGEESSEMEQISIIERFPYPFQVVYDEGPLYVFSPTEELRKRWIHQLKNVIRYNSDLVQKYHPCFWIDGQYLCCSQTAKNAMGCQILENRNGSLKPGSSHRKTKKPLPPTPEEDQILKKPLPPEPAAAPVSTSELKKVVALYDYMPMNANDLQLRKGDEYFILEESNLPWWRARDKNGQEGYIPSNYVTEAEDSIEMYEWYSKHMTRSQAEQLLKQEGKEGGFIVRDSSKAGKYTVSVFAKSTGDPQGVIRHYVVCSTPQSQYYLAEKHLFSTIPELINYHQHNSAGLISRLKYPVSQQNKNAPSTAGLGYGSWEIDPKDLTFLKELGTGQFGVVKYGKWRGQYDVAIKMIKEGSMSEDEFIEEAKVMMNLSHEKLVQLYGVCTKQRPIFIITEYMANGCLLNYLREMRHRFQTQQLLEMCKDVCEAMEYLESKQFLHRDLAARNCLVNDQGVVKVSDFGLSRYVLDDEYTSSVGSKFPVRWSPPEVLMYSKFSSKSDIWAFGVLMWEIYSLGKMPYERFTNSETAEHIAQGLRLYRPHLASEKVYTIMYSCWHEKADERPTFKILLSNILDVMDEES
SMILES,pIC50 ([1]; Table I pyridazinones),melting point [°C],pIC50 ([1]; Table II pyridinones)
"Cc1c(NC(=O)c2ccc(C(C)(C)C)cc2)cccc1-c1cc(Nc2ccc(C(=O)N3CCOCC3)cn2)c(=O)n(C)n1 [Compound I-1, 4-tert-Butyl-N-(2-methyl-3-{1-methyl-5-[5-(morpholine-4-carbonyl)-pyridin-2-ylamino]-1,6-oxo-dihydro-pyridazin-3-yl}-phenyl)-benzamide]",> 8.00,148 to 150,
Cc1c(NC(=O)c2ccc(C(C)(C)C)cc2)cccc1-c1cc(Nc2ccc(C(=O)N3CCN(C)CC3)cn2)c(=O)n(C)n1 [Compound I-2],7.85,158 to 160,
Cc1c(NC(=O)c2ccc(C(C)(C)C)cc2)cccc1-c1cc(Nc2ccccn2)c(=O)n(C)n1 [Compound I-3],7.03,248.5 to 249.3,
Cc1c(NC(=O)c2ccc(C(C)(C)C)cc2)cccc1-c1cc(Nc2ccncn2)c(=O)n(C)n1 [Compound I-4],6.68,249 to 250,
Cc1c(NC(=O)c2ccc(C(C)(C)O)cc2)cccc1-c1cc(Nc2ccc(C(=O)N3CCN(C)CC3)cn2)c(=O)n(C)n1 [Compound I-5],6.91,167.5 to 168.5,
"Cc1c(NC(=O)N2CCN(C(C)(C)C)CC2)cccc1-c1cc(Nc2ccc(C(=O)N3CCOCC3)cn2)c(=O)n(C)n1 [Compound I-6, 4-tert-Butyl-piperazine-1-carboxylic acid (2-methyl-3-{1-methyl-5-[5-(morpholine-4-carbonyl) -pyridin-2-ylamino]-6-oxo-1,6-dihydro-pyridazin-3-yl}-phenyl)-amide]",4.81,166 to 169,
COc1cc(C(C)(C)C)ccc1C(=O)Nc1cccc(-c2cc(Nc3ccc(C(=O)N4CCOCC4)cn3)c(=O)n(C)n2)c1C [Compound I-7],6.57,156.5 to 157,
"Cc1c(NC(=O)N2CC(OC(C)(C)C)C2)cccc1-c1cc(Nc2ccc(C(=O)N3CCOCC3)cn2)c(=O)n(C)n1 [Compound I-10, 3-tert-Butoxy-azetidine-1-carboxylic acid(2-methyl-3-{1-methyl-5-[5-(morpholine-4-carbonyl) -pyridin-2-ylamino]-6-oxo-1,6-dihydro-pyridazin-3-yl}-phenyl)-amide]",6.64,171 to 172,
Cc1c(NC(=O)c2ccc(C(C)(C)C)cc2)cccc1-c1cc(Nc2ccnc(N3CCN(C)CC3)n2)c(=O)n(C)n1 [Compound I-11],7.11,220 to 222,
CSc1nccc(Nc2cc(-c3cccc(NC(=O)c4ccc(C(C)(C)C)cc4)c3C)nn(C)c2=O)n1 [Compound I-12],7.29,224 to 225,
Cc1c(NC(=O)c2ccc(C(C)(C)C)cc2)cccc1-c1cc(Nc2ccnc(N3CCOCC3)n2)c(=O)n(C)n1 [Compound I-14],6.60,211 to 213,
Cn1nc(-c2cccc(NC(=O)c3ccc(C(C)(C)O)cc3)c2)cc(Nc2ccc(C(=O)N3CCOCC3)cn2)c1=O [Compound I-16],6.92,172 to 173,
Cc1c(NC(=O)c2ccc(C(C)(C)C)cc2)cccc1-c1cc(Nc2ccnc(OCCN(C)C)n2)c(=O)n(C)n1 [Compound I-18],6.49,188 to 189,
Cc1c(NC(=O)c2ccc(C(C)(C)C)cc2)cccc1-c1cc(Nc2ccnc(N3CCC(CO)C3)n2)c(=O)n(C)n1 (centres unmarked) [Compound I-20],6.90,210 to 211,
Cc1c(NC(=O)c2ccc(C(C)(C)C)cc2)cccc1-c1cc(Nc2ccnc(N3CCCC3)n2)c(=O)n(C)n1 [Compound I-21],6.45,193 to 195,
"CNC(=O)Nc1cc(-c2cccc(NC(=O)c3ccc(C(C)(C)C)cc3)c2C)nn(C)c1=O [Compound I-23, 4-tert-Butyl-N-{2-methyl-3-[1-methyl-5-(3-methyl-ureido)-6-oxo-1,6-dihydro-pyridazin-3-yl]-phenyl}-benzamide]",7.00,287 to 288,

# Continued, values first:
pIC50 ([1]; Table I pyridazinones),melting point [°C],pIC50 ([1]; Table II pyridinones),SMILES
,262 to 264,,"CNC(=O)Nc1cc(-c2cccc(NC(=O)c3ccc(C(C)(C)C)cc3)c2C)cn(C)c1=O [II-4, 4-tert-Butyl-N-{2-methyl-3-[1-methyl-5-(3-methyl-ureido)-6-oxo-1,6-dihydro-pyridin-3-yl]-phenyl}-benzamide]"
,,> 8.00,"Cn1cc(-c2cccc(NC(=O)c3ccc(C(C)(C)C(F)(F)F)cc3)c2CO)cc(Nc2ccc(C(=O)N3CCNCC3)cn2)c1=O [II-81, N-(2-Hydroxymethyl-3-{1-methyl-6-oxo-5-[5-(piperazine-1-carbonyl)-pyridin-2-ylamino]-1,6-dihydro-pyridin-3-yl}-phenyl)4-(2,2,2-trifluoro-1,1-dimethyl-ethyl)-benzamide]"
,,7.27,Cn1cc(-c2cccc(NC(=O)c3ccc(C4CC4)cc3)c2CO)cc(NC(=O)NCCCN2CCOCC2)c1=O [II-83]
,,7.22,Cn1cc(-c2cccc(NC(=O)c3ccc(C4CC4)cc3)c2CO)cc(NC(=O)NCC2CCCO2)c1=O (centres unmarked) [II-84]
,,7.34,CCC(O)CNC(=O)Nc1cc(-c2cccc(NC(=O)c3ccc(C4CC4)cc3)c2CO)cn(C)c1=O (centres unmarked) [II-85]
,,7.17,CC(O)CNC(=O)Nc1cc(-c2cccc(NC(=O)c3ccc(C4CC4)cc3)c2CO)cn(C)c1=O (centres unmarked) [II-86]
,,6.85,CC(C)n1nc(Nc2cc(-c3cccc(NC(=O)c4ccc(C5CC5)cc4)c3CO)cn(C)c2=O)ccc1=O [II-88]
,,> 8.00,Cn1cc(-c2cccc(NC(=O)c3ccc(S(F)(F)(F)(F)F)cc3)c2CO)cc(Nc2ccc(C(=O)N3CCOCC3)cn2)c1=O [II-89]
,,7.09,CCOc1cccc(Nc2cc(-c3cccc(NC(=O)c4ccc(C5CC5)cc4)c3CO)cn(C)c2=O)n1 [II-90]
,,7.18,CCn1nc(Nc2cc(-c3cccc(NC(=O)c4ccc(C5CC5)cc4)c3CO)cn(C)c2=O)ccc1=O [II-91]
,,6.53,Cn1cc(-c2cccc(NC(=O)c3ccc(C4CC4)cc3)c2CO)cc(Nc2ccc(=O)n(Cc3ccccc3)n2)c1=O [II-93]
,,7.62,Cc1ccc(Nc2cc(-c3cccc(NC(=O)c4ccc(C5CC5)cc4)c3CO)cn(C)c2=O)nn1 [II-94]
,,7.70,Cn1cc(-c2cccc(NC(=O)c3ccc(C4CC4)cc3)c2CO)cc(Nc2cccnn2)c1=O [II-95]
,,> 8.00,Cn1cc(-c2cccc(NC(=O)c3ccc(C(C)(C)C#N)cc3)c2CO)cc(Nc2ccc(C(=O)N3CCOCC3)cn2)c1=O [II-96]
,,6.94,Cn1cc(-c2cccc(NC(=O)c3ccc(N4CCCCC4)cc3)c2CO)cc(Nc2ccc(C(=O)N3CCOCC3)cn2)c1=O [II-97]
,,7.05,Cn1cc(-c2cccc(NC(=O)c3ccc(C4CC4)cc3)c2CO)cc(Nc2cnccn2)c1=O [II-98]
,,7.96,Cn1cc(-c2cccc(NC(=O)c3ccc(C4CC4)cc3)c2CO)cc(Nc2ccc(C(=O)N3CCCC3)cn2)c1=O [II-99]
,,7.51,Cn1cc(-c2cccc(NC(=O)c3ccc(C4CC4)cc3)c2CO)cc(Nc2ccc(C(=O)N3CC(F)(F)C3)cn2)c1=O [II-100]
,,> 8.00,Cn1cc(-c2cccc(NC(=O)c3ccc(C4CC4)cc3)c2CO)cc(Nc2ccc(C(=O)N3CCC3)cn2)c1=O [II-101]
,,> 8.00,Cn1cc(-c2cccc(NC(=O)N3Cc4ccccc4C3)c2CO)cc(Nc2ccc(C(=O)N3CCOCC3)cn2)c1=O [II-102]
,,7.85,Cn1cc(-c2cccc(NC(=O)c3ccc(C4CC4)cc3)c2CO)cc(Nc2ccc(N3CCOCC3)nn2)c1=O [II-103]
